pIC50, pKi: −log10 of the molar value. Several values for one entry are separate records, joined by “and”; a condition that tells them apart may be missing. Equal values may be shown once. Entries after “also recorded” stand apart in the source; their conditions may differ. One block for each molecule: values may come before it.
Columns and labels:
hAdK [1] = molecular target: T1, hAdK (Homo sapiens, UniProt P55263); experiment: commercial nonisotopic spectrophotometric hAdK kinetic activity assay (340 nm, inosine as substrate); assay type: biochemical
T1 construct: purchased
Protocol: The nucleoside derivatives were tested for inhibitory activity at hAdK using a commercial, nonisotopic assay for the measurement of hAdK kinetic activity based on continuous monitoring of enzymatic activity at 340 nm (appearance of reduced nicotinamide-adenine dinucleotide from a coupled enzymatic reaction). The hAdK-catalyzed phosphorylation of inosine to inosine 5′-monophosphate is coupled to the inosine 5′-monophosphate dehydrogenase-dependent oxidation of the product. […] Percent inhibition of hAdK activity was calculated by determining the slope of the hAdK reaction during the linear phase of the enzymatic reaction (first 40 min) (see Table 1, below). […] Each inhibitor was analyzed at the following concentrations (μM): of 50, 20, 1, 0.50, 0.10, 0.020 and 0.010.

[2] = molecular target: human 5HT7 (serotonin) receptor (Homo sapiens, UniProt P34969); experiment: PDSP radioligand binding, 5HT7; details: read-out: Ki, inhibition of radioligand binding
Description: (§1) It is possible that transient treatment with AdK inhibitors would have long-lasting therapeutic benefits for treatment of CNS disorders, not only by raising the basal level of AR activation but also through epigenetic reprogramming. […] SAH in turn inhibits DNA methyltransferases through product inhibition. Because the epigenetic effects related to changes in the DNA methylation status would persist, it might be possible to reduce the duration of drug administration, thus avoiding toxicities associated with prolonged, chronic dosing. A transient dosing regimen might also avoid possible side effects, such as liver toxicity. Compound 38a was submitted to the Psychoactive Drug Screening Program (PDSP) for screening at 45 receptors, channels and transporters. […] Nevertheless, the offtarget interactions of the present set of compounds would have to be examined more extensively.

[3] = test system: 45 receptors, channels and transporters; experiment: PDSP screening at 45 receptors, channels and transporters (other off-target sites); assay type: binding; details: 10 μM
Description: as §1

human P2Y1 = molecular target: T2, human P2Y1 (Homo sapiens, UniProt P47900); experiment: calcium transients, P2Y1 in 1321N1 astrocytoma cells; assay type: cell-based; details: 10 μM
T2 construct: expressed in transfected cells; host or cells: 1321N1 astrocytoma cells
Description: as §1

human P2Y2 = molecular target: T3, human P2Y2 (Homo sapiens, UniProt P41231); experiment: calcium transients, P2Y2 in 1321N1 astrocytoma cells; assay type: cell-based; details: 10 μM
T3 construct: expressed in transfected cells; host or cells: 1321N1 astrocytoma cells
Description: as §1

human P2Y4 = molecular target: T4, human P2Y4 (Homo sapiens, UniProt P51582); experiment: calcium transients, P2Y4 in 1321N1 astrocytoma cells; assay type: cell-based; details: 10 μM
T4 construct: expressed in transfected cells; host or cells: 1321N1 astrocytoma cells
Description: as §1

human P2Y11 = molecular target: T5, human P2Y11 (Homo sapiens, UniProt Q96G91); experiment: calcium transients, P2Y11 in 1321N1 astrocytoma cells; assay type: cell-based; details: 10 μM
T5 construct: expressed in transfected cells; host or cells: 1321N1 astrocytoma cells
T5 sequence (Q96G91 1-374): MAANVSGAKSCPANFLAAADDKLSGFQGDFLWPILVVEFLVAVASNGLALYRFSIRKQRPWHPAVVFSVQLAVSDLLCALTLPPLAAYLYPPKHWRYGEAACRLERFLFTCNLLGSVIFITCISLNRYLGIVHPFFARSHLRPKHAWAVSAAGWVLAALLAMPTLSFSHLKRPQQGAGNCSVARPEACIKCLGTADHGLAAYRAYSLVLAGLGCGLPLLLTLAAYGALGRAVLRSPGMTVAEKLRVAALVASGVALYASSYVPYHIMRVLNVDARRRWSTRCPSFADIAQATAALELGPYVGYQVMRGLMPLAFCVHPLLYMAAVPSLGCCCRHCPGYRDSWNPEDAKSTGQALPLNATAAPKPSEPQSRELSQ
Description: as §1

[4] = molecular target: T6, protease-activated receptor (PAR)1 (Homo sapiens, UniProt P25116); experiment: PAR1 agonist/antagonist test in mouse KOLF cells; assay type: cell-based; details: 10 μM
T6 construct: expressed in transfected cells; host or cells: mouse KOLF cells
T6 sequence (P25116 22-425): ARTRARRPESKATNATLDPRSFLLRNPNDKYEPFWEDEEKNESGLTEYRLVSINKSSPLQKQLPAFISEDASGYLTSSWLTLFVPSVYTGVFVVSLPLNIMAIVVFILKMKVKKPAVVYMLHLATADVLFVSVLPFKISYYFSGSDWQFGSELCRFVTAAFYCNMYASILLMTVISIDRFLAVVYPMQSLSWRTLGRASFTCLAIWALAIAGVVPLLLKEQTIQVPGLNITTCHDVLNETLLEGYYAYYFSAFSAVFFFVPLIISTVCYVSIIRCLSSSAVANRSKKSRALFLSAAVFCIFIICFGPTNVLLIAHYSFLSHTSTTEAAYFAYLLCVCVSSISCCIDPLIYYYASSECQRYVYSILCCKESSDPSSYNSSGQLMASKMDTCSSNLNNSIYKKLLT
Description: as §1

ADK-null cells = experiment: DNA methylation in ADK-null cells (off-target); assay type: cell-based; details: vs vehicle
Description: To test for nonspecific activities of ADK inhibitors on DNA methylation, we tested our set of inhibitors on ADK-null cells, which are hypomethylated and can be used to identify treatments that increase DNA methylation (whereas ADK-L cells display a hypermethylated ceiling effect).

DNMT activity = DNMT activity in brain nuclear protein extracts of treated mice; assay type: in vivo, Swiss Webster mice; details: 3.1 mg/kg i.p., 3 doses every 12 hours, 1 hour after 3rd dose, vs vehicle
Protocol: (§2) Epigenetic activity in the brain. […] Tissue was harvested 1 hour after the 3rd dose.

[5] = test system: Hippocampal DNA methylation; experiment: hippocampal / brain DNA methylation in treated mice; assay type: in vivo, Swiss Webster mice; details: 3.1 mg/kg i.p., 3 doses every 12 hours, 1 hour after 3rd dose, vs controls
Protocol: as §2

[6] = side effects: mouse activity in an open field; assay type: in vivo, mice; details: epigenetically active dose, i.p.
Protocol: Side effects were indexed by mouse activity in an open field for 20 minutes following a single i.p. injection of vehicle, 5-ITU or compound 38a. […] Data are presented as the mean±SEM and analyzed by one-way ANOVA then uncorrected Fisher's LSD test with all comparisons relative to vehicle or Kruskal-Wallis then Dunn's multiple comparisons.

[7] = polarity judged by tendency to dissolve in organic solvents; assay type: physicochemical; details: based on tendency to dissolve in organic solvents
Description: The bioavailability and the in vivo activity of these inhibitors remain to be determined. Other nucleoside derivatives were protective in seizure models when administered peripherally. […] Among the new (S)-methanocarba AdK inhibitors, 5′-deoxy analogue 38a and especially the fluoro analogues 38b and 38c appear to be the least polar, based on their tendency to dissolve in organic solvents.

ADK-S cells = experiment: DNA methylation in ADK-S cells
ADK-L cells = experiment: DNA methylation (5 mC ELISA) in ADK-L cells; parameters: reduction of DNA methylation in ADK-L cells: dose or concentration left out as unconfirmed; details: 24 hours
Protocol: The in vitro IC50 for each conventional ADK inhibitor was selected as the treatment dose. […] Purified genomic DNA (100 ng) was run on a 5-methylcytosine (5 mC) ELISA. Data shown in FIG. 11 are represented as the mean±SEM (n=8-9) and analyzed by one-way ANOVA followed by Tukey's multiple comparisons test (C) or Krus-kal-Wallis test followed by uncorrected Dunn's test with all comparisons relative to ADK-L vehicle (D).

hAdK [8] = molecular target: T1, hAdK; details: read-out: Km as substrate of hAdK; cited from earlier work

T1 sequence (P55263 whole entry): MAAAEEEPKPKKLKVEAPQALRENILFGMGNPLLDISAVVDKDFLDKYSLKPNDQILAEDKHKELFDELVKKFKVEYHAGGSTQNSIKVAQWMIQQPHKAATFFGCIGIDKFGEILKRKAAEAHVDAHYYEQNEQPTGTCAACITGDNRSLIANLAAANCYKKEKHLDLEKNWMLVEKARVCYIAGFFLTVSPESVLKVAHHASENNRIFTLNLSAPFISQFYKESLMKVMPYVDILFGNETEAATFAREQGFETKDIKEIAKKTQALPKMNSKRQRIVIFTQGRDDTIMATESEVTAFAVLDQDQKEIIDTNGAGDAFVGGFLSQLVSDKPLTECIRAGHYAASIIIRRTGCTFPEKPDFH
T3 sequence (P41231 whole entry): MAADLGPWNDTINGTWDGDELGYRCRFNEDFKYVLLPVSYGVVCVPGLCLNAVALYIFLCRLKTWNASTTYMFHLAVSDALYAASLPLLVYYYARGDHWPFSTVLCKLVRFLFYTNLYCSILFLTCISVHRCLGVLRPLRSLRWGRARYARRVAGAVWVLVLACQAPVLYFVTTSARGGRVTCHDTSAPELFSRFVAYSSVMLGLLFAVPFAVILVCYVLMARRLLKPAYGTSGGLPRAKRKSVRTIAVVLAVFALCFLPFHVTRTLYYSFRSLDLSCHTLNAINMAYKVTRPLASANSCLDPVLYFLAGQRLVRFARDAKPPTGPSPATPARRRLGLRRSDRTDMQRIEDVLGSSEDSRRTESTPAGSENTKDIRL
T2 sequence (P47900 whole entry): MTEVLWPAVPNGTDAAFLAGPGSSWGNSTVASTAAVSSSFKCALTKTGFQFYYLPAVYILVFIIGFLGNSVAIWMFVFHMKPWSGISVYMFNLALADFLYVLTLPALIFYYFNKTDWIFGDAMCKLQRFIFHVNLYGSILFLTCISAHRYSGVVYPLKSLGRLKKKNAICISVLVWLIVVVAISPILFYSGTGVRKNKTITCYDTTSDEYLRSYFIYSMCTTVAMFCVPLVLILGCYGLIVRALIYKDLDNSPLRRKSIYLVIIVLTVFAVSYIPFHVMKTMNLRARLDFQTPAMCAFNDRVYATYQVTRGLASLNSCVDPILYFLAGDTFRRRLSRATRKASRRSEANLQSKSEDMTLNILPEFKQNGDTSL
Sequence of human 5HT7 (serotonin) receptor (P34969 whole entry): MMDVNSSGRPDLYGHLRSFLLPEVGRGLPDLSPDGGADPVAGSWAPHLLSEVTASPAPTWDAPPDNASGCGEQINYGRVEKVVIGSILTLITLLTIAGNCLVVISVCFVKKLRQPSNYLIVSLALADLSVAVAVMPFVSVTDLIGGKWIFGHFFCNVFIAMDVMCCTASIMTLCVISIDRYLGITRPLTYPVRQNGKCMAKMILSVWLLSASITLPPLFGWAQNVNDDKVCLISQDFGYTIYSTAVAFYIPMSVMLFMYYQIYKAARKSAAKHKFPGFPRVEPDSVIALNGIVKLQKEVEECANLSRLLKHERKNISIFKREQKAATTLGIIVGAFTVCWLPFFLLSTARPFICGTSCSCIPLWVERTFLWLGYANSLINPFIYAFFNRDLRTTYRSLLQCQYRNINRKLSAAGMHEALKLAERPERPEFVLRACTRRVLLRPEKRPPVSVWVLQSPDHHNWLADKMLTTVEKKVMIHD
T4 sequence (P51582 whole entry): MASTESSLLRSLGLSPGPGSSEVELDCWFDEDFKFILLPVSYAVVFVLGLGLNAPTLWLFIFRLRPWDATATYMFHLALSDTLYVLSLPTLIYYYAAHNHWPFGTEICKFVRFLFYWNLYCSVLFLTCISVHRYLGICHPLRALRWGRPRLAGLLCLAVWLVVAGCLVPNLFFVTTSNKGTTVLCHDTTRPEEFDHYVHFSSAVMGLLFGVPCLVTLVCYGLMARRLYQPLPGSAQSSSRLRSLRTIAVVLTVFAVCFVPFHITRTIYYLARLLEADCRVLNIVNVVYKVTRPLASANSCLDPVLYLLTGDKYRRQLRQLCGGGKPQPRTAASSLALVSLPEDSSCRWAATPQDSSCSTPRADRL

concentration at which inhibition begins to vary significantly from 2 (hAdK [1]; Bonferroni post hoc vs 2): never significantly varied from 2 | potency relative to reference compound 2 (hAdK [1]; hAdK inhibition): approximately two-fold less potent | pIC50 (hAdK [1]; hAdK, inosine as substrate, read-out: IC50 for hAdK): > 7.00 and 7.06 | pKi [2]: 6.15 | inhibition of binding at the other off-target sites [3]: < 50% | agonist or antagonist activity at P2Y1 (human P2Y1): inactive | agonist or antagonist activity at P2Y2 (human P2Y2): inactive | agonist or antagonist activity at P2Y4 (human P2Y4): inactive | agonist or antagonist activity at P2Y11 (human P2Y11): inactive | agonist or antagonist activity at PAR1 [4]: inactive | polarity [7]: least polar
SMILES: C[C@@H]1[C@@H](O)[C@@H](O)[C@@]2(n3cc(-c4ccccc4)c4c(Nc5ccccc5)ncnc43)C[C@@H]12 [Compound 38a]
hAdK inhibition, in words (hAdK [1]): commensurate with 2 at most concentrations | effect on DNA methylation in ADK-null cells (non-specific) (ADK-null cells): greater specificity | effect on DNA methylation in ADK-null cells (non-specific) (ADK-null cells; listed as 38A): no effect on DNA methylation; also recorded: without any off-target effects | DNMT activity in brain nuclear protein extracts (DNMT activity): significantly reduced | DNMT activity in brain nuclear protein extracts (DNMT activity; listed as 38A): reduced | hippocampal (brain) DNA methylation levels [5]: reduced | hippocampal (brain) DNA methylation levels ([5]; listed as 38A): reduced; also recorded: reduces DNA methylation in the hippocampus | sedation / sedative side effects [6]: not associated with any overt signs of sedation | effect on DNA methylation in ADK-S cells (ADK-S cells): without any off-target effects | effect on DNA methylation in ADK-L cells, in words (ADK-L cells; 55 and 38a at 26 nM, known inhibitors at their IC50): reduces DNA methylation specifically in ADK-L cells | reduction of DNA methylation in ADK-L cells (ADK-L cells; […] nM (equimolar), vs ADK-L vehicle): > 50%

SMILES: Nc1ncnc2c1ncn2[C@@H]1O[C@H](CO)[C@@H](O)[C@H]1O [adenosine]
Km (hAdK [8]): 0.7 µM

Source: US10016432B2 (Legacy Emanuel Hospital & Health Center, priority 2016, dated 2018)
